The values below are quoted from earlier work in patent US12569529B2, “Natural combination products and methods for regulation of kidney and excretory system function” (Pure Care Pro LLC, priority 2018, dated 2026).

For data set [1], the system named is kidney proximal tubular cells. The conditions noted are these: kidney proximal tubular cells in culture.
Data set [2] has as its system patients with CKD.

Regarding `Cc1c(C)c2c(c(C)c1O)CC[C@@](C)(CCC[C@H](C)CCC[C@H](C)CCCC(C)C)O2` [α-tocopherol], the “cisplatin-induced reactive oxygen species (ROS)” value in data set [1] was “decreased”. In data set [1] (cisplatin), the cell viability entry was “increased”.

Take vitamin E: the ADMA levels result in data set [2] is “reductions”.
